Reference: article PMC12305494, “Discovery of PXR Antagonist MI891 and PXR Degrader MI1013 and Their Roles in Hepatic Gene Regulation” (Journal of Medicinal Chemistry, 2025)

Experiments:
human CAR LBD = molecular target: T1, human CAR LBD (Homo sapiens, UniProt Q14994); test: LanthaScreen TR-FRET CAR Coactivator assay; assay type: biochemical; conditions: nb = no binding
T1 sequence (Q14994 103-352): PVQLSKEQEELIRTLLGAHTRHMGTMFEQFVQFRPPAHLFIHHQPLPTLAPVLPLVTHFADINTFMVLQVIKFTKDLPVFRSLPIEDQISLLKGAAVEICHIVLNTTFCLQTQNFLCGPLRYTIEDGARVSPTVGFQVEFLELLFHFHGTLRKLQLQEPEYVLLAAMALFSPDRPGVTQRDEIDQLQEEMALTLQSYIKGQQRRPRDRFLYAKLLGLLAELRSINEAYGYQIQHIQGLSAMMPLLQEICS
Description: (§1) We utilized the LanthaScreen TR-FRET CAR Coactivator Binding Assay Kit, goat (Thermo Fisher Scientific, Cat. No. PV4836), which includes GST-tagged human CAR LBD and a fluorescein-labeled PGC1α coactivator peptide. The assay was performed with slight modifications to the manufacturer’s protocol, as previously reported. […] The interaction with the PXR ligand-binding domain (LBD) was assessed using the LanthaScreen TR-FRET PXR Competitive Binding Assay (Thermo Fisher Scientific, PV4839), as previously described. This assay quantifies the ability of test compounds to displace a fluorescent PXR ligand from the receptor. Fluorescence readings were taken on a Synergy 2 Multi-Mode Microplate Reader (BioTek, Winooski, VT). The half-maximal inhibitory concentration (IC50) for PXR LBD was calculated from at least eight data points using GraphPad Prism software.

PXR-HiBiT = molecular target: T2, PXR-HiBiT (Homo sapiens, UniProt O75469+Q96SW2); test: Nano-Glo HiBiT lytic assay in HepG2 cells; assay type: cell-based; conditions: HepG2, 10 μM, 8 h, 0.3 ng PXR-HiBiT vector
T2 construct: host or cells: HepG2
T2 sequence (O75469 whole entry): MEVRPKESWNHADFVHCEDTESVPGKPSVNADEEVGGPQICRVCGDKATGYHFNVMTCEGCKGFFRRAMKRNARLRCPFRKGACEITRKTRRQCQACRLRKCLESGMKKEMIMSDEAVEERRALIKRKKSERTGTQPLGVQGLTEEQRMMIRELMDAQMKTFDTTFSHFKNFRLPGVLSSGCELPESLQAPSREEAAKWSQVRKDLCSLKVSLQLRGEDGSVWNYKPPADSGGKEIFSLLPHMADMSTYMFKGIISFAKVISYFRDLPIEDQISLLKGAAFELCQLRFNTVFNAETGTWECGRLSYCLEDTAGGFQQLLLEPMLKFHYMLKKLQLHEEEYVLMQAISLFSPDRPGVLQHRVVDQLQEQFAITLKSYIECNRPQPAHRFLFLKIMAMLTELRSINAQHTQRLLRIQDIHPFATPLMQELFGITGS
T2 sequence (Q96SW2 whole entry): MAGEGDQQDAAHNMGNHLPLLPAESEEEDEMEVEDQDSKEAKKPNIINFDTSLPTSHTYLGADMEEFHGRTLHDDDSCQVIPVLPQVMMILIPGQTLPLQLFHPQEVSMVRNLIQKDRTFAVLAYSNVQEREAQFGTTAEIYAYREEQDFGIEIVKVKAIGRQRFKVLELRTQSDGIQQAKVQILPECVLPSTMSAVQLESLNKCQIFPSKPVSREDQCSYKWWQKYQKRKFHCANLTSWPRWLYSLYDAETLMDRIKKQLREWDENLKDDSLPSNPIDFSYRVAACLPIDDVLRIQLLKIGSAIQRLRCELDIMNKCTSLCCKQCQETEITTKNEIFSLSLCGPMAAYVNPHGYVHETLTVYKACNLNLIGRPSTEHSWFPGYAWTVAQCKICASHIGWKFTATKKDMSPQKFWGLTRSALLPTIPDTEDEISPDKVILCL
Description: For HiBiT assay, HepG2 cells (40,000 cells/well) were seeded in a 48-well plate. The following day, cells were transfected with 0.3–100 ng of PXR-HiBiT (GenScript-HiBiT_NR1I2_OHu23779D_pcDNA3.1+/C-(K)-DYK) and 0.3–100 ng of CRBN (GenScript-CRBN_OHu21180D_pcDNA3.1+/C-(K)-DYK) in a 1:1 ratio using Lipofectamine 3000 (ThermoFisher Scientific), following the manufacturer’s protocol. After 24 h, cells were treated with varying concentrations of MI1013, and vehicle (0.1% DMSO). The plates were incubated for 8 h, and the HiBiT NanoLuc signal was measured using the Nano-Glo HiBiT Lytic Detection System (Promega; […]) in a Synergy microplate reader (Biotek) under luminescence mode with a read time of 0.2 s/well, gain set as auto, and integration time 2 s. Results are reported as relative abundance or response (%) change relative to DMSO control cells. […] The DC50 value was calculated using a curve fit–log(inhibitor) vs response–with a variable slope (four-parameter) logistic fitting using GraphPad Prism.

MOLT4 cells = test: Off-target quantitative global proteomics in MOLT4 cells; assay type: cell-based, human
Description: Cells were lysed by the addition of lysis buffer (8 M Urea, 50 mM NaCl, 50 mM […] (EPPS) pH 8.5, Protease and Phosphatase inhibitors) and homogenization by bead beating (BioSpec) for three repeats of 30 s at 2400. Bradford assay was used to determine the final protein concentration in the clarified cell lysate. 50 μg of protein for each sample was reduced, alkylated, and precipitated using methanol/chloroform as previously described and the resulting washed precipitated protein was allowed to air-dry. Precipitated protein was resuspended in 4 M Urea, 50 mM HEPES pH 7.4, followed by dilution to <1 M urea with the addition of 200 mM EPPS, pH 8. Proteins were digested overnight at 37 °C with LysC (1:50; enzyme:protein) and trypsin (1:50; enzyme:protein). Sample digests were acidified with formic acid to a pH of 2–3 prior to desalting using C18 solid-phase extraction plates (SOLA, Thermo Fisher Scientific). Desalted peptides were dried in a vacuum-centrifuge and reconstituted in 0.1% formic acid for LC-MS analysis. […]
The diaPASEF raw file processing and controlling peptide and protein level false discovery rates, assembling proteins from peptides, and protein quantification from peptides were performed using library-free analysis in DIA-NN 1.8. […]

PXR LBD = molecular target: T3, PXR LBD (Homo sapiens, UniProt O75469); test: LanthaScreen TR-FRET PXR competitive binding assay; conditions: recombinant PXR LBD, competition with tracer
T3 construct: purchased Thermo Fisher Scientific PV4839
T3 sequence (O75469 146-433 limits assumed): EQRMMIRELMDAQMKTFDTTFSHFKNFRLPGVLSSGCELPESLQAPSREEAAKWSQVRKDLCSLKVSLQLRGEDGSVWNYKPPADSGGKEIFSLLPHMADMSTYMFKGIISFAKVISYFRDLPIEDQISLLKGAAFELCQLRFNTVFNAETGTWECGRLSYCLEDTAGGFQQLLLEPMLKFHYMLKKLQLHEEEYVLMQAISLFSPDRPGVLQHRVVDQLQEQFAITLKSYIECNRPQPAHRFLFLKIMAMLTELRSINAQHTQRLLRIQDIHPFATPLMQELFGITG
Description: as §1

CAR TR-FRET (EC50, μM) (human CAR LBD; listed as 11 (MI891)) | CAR TR-FRET (EC50, μM) (human CAR LBD; listed as MI891) | PXR-HiBiT degradation (PXR-HiBiT) | binding to PXR LBD compared to MI1011B and SR12813 (PXR LBD) | Molecule | IKZF1, IKZF3 and ZFP91 levels, global proteomics (MOLT4 cells) | GSPT1 expression, global proteomics (MOLT4 cells; 2 μM of MI1013)
nb | no binding activity | – | – | NC(=O)c1cc(Cn2cc(-c3c(-c4ccc(Cl)cc4)nc4c(F)cc(F)cn34)nn2)ccc1Cl [Compound 11, 2-Chloro-5-((4-(2-(4-chlorophenyl)-6,8-difluoroimidazo[1,2-a]pyridin-3-yl)-1H-1,2,3-triazol-1-yl)methyl)-benzamide] | – | –
– | – | confirmed PXR degradation | weaker binding to PXR LBD | N-(4-((1-(2,5-dimethoxyphenyl)-5-methyl-1H-1,2,3-triazol-4-yl)sulfonyl)phenyl)-3-(2-(2-(2-(4-(((2-(2,6-dioxopiperidin-3-yl)-1,3-dioxoisoindolin-4-yl)amino)methyl)-1H-1,2,3-triazol-1-yl)ethoxy)ethoxy)ethoxy)propenamide [Compound 36] | degradation | remains undegraded
